Measured values: US7851474B2, “Dipiperazinyl ketones and related analogues” (Neurogen Corporation, priority 2005, dated 2010)

molecular target: T1, chimeric human H3 receptor (Homo sapiens, UniProt Q9Y5N1, E19D); assay: Chimeric human H3 receptor screening GTP binding assay (inhibition of histamine-stimulated GTP-gamma35S binding, Example 8); format: biochemical; settings: 1 h; assay described in Example 8; symbol + in column headed Ki of Table II; read-out: percent inhibition of agonist-induced GTP-gammaS binding to H3
T1 construct: made in house; host or cells: Sf9 insect cells (baculovirus infection); P2 membrane preparation
Experimental: This Example illustrates a representative screening assay for evaluating inhibition of histamine-stimulated GTP-gamma^35S binding. Such GTP binding activity can be used to identify H3 antagonists and inverse agonists. A compound analyzed in this assay is referred to herein as a “test compound,” and the initial identification of antagonists and inverse agonists is performed using a test compound concentration of 4 μM.
Four independent baculoviral stocks (one directing the expression of the chimeric human H3 receptor and three directing the expression of each of the three subunits of a heterotrimeric G-protein) are used to infect a culture of Sf9 cells as described above. P2 membranes are prepared as described above, and are resuspended by Dounce homogenization (tight pestle) in GTP binding assay buffer (50 mM Tris pH 7.4, 120 mM NaCl, 5 mM MgCl2, 2 mM EGTA, 1 mg/ml BSA, 0.2 mg/ml bacitracin, 0.02 mg/ml aprotinin, 0.01 mg/ml saponin, 10 μM GDP) and added to assay tubes at a concentration of 35 μg protein/reaction tube. Non-radiolabeled test compounds are added to separate reactions at a concentration of 4 μM along with 1 μM histamine (agonist). Reactions are initiated by the addition of 125 pM GTP-gamma^35S with a final assay volume of 0.20 ml.
After a 60-min incubation at room temperature, reactions are terminated by vacuum filtration over GF/C filters (pre-soaked in 50 mM Tris pH 7.4, 120 mM NaCl plus 0.1% BSA) followed by washing with ice-cold buffer (50 mM Tris pH 7.4, 120 mM NaCl). The amount of receptor-bound (and thereby membrane-bound) GTP-gamma^35S is determined by measuring the bound radioactivity, preferably by liquid scintillation spectrometry of the washed filters. Non-specific binding is determined using 10 uM GTP-gammaS and typically represents less than 5 percent of total binding. After subtraction of non-specific binding, data is expressed as percent inhibition of 1 μM histamine signal.
Neutral antagonists are those test compounds that reduce the histamine-stimulated GTP binding activity towards, but not below, baseline levels. In contrast, in the absence of added histamine, inverse agonists reduce the GTP binding activity of the receptor-containing membranes below baseline. Any test compound that elevates GTP binding activity above baseline in the absence of added histamine in this assay is defined as having agonist activity.

T1 sequence (Q9Y5N1 with tags, fused parts or gaps E19D): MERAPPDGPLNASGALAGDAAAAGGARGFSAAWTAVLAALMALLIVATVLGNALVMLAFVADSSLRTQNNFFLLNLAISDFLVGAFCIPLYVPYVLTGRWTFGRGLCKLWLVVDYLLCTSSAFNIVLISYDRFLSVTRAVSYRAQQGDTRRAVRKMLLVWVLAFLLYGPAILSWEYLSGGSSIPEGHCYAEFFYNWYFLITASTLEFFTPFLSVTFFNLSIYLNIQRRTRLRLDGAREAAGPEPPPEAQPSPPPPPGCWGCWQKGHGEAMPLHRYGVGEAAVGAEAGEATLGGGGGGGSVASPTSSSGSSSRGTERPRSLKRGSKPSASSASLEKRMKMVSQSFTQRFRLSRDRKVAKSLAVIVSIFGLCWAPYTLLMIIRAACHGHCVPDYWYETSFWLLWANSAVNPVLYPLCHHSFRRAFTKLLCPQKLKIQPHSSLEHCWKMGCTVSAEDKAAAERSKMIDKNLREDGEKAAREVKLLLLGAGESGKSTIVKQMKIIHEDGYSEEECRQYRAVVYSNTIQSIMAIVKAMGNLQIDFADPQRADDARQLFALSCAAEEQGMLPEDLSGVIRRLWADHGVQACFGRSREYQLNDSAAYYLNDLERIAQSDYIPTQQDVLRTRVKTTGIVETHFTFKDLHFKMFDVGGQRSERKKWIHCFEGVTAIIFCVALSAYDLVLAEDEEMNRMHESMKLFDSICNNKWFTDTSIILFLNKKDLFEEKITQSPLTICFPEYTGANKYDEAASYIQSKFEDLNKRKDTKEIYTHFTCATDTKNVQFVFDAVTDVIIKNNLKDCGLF

| inhibition at 4 µM | Molecule |
| --- | --- |
| > 90% | O=C(CN1CCN(C(=O)c2cccnc2Sc2ccc(Cl)cc2)CC1)N1CCN(C2CCC2)CC1 [Compound 256, 1-({2-[(4-chlorophenyl)thio]pyridin-3-yl}carbonyl)-4-[2-(4-cyclobutylpiperazin-1-yl)-2-oxoethyl]piperazine] |
| > 90% | O=C(CN1CCN(C(=O)c2ccc3c(c2)OCO3)CC1)N1CCN(C2CCC2)CC1 [Compound 260, 1-(1,3-benzodioxol-5-ylcarbonyl)-4-[2-(4-cyclobutylpiperazin-1-yl)-2-oxoethyl]piperazine] |
| > 90% | O=C(CN1CCN(C(=O)c2cc3ccccc3s2)CC1)N1CCN(C2CCC2)CC1 [Compound 261, 1-(1-benzothien-2-ylcarbonyl)-4-[2-(4-cyclobutylpiperazin-1-yl)-2-oxoethyl]piperazine] |
| > 90% | O=C(CN1CCN(C(=O)c2ccccc2Cc2ccccc2)CC1)N1CCN(C2CCC2)CC1 [Compound 270, 1-(2-benzylbenzoyl)-4-[2-(4-cyclobutylpiperazin-1-yl)-2-oxoethyl]piperazine] |
| > 90% | COc1ccc(Br)c(C(=O)N2CCN(CC(=O)N3CCN(C4CCC4)CC3)CC2)c1 [Compound 271, 1-(2-bromo-5-methoxybenzoyl)-4-[2-(4-cyclobutylpiperazin-1-yl)-2-oxoethyl]piperazine] |
| > 90% | O=C(CN1CCN(C(=O)c2c(F)cccc2Cl)CC1)N1CCN(C2CCC2)CC1 [Compound 274, 1-(2-chloro-6-fluorobenzoyl)-4-[2-(4-cyclobutylpiperazin-1-yl)-2-oxoethyl]piperazine] |
| > 90% | COc1cc(C(=O)N2CCN(CC(=O)N3CCN(C4CCC4)CC3)CC2)cc(Cl)n1 [Compound 275, 1-(2-chloro-6-methoxyisonicotinoyl)-4-[2-(4-cyclobutylpiperazin-1-yl)-2-oxoethyl]piperazine] |
| > 90% | Cc1cc(C(=O)N2CCN(CC(=O)N3CCN(C4CCC4)CC3)CC2)cc(Cl)n1 [Compound 276, 1-(2-chloro-6-methylisonicotinoyl)-4-[2-(4-cyclobutylpiperazin-1-yl)-2-oxoethyl]piperazine] |
| > 90% | O=C(CN1CCN(C(=O)c2ccccc2Cl)CC1)N1CCN(C2CCC2)CC1 [Compound 277, 1-(2-chlorobenzoyl)-4-[2-(4-cyclobutylpiperazin-1-yl)-2-oxoethyl]piperazine] |
| > 90% | O=C(CN1CCN(C(=O)c2ccnc(Cl)c2)CC1)N1CCN(C2CCC2)CC1 [Compound 279, 1-(2-chloroisonicotinoyl)-4-[2-(4-cyclobutylpiperazin-1-yl)-2-oxoethyl]piperazine] |
| > 90% | COc1ccc(Br)c(OC)c1C(=O)N1CCN(CC(=O)N2CCN(C3CCC3)CC2)CC1 [Compound 290, 1-(3-bromo-2,6-dimethoxybenzoyl)-4-[2-(4-cyclobutylpiperazin-1-yl)-2-oxoethyl]piperazine] |
| > 90% | O=C(CN1CCN(C(=O)c2ccc(F)c(Br)c2)CC1)N1CCN(C2CCC2)CC1 [Compound 291, 1-(3-bromo-4-fluorobenzoyl)-4-[2-(4-cyclobutylpiperazin-1-yl)-2-oxoethyl]piperazine] |
| > 90% | Cc1ccc(C(=O)N2CCN(CC(=O)N3CCN(C4CCC4)CC3)CC2)cc1Br [Compound 292, 1-(3-bromo-4-methylbenzoyl)-4-[2-(4-cyclobutylpiperazin-1-yl)-2-oxoethyl]piperazine] |
| > 90% | COc1ccc(Cl)c(OC)c1C(=O)N1CCN(CC(=O)N2CCN(C3CCC3)CC2)CC1 [Compound 294, 1-(3-chloro-2,6-dimethoxybenzoyl)-4-[2-(4-cyclobutylpiperazin-1-yl)-2-oxoethyl]piperazine] |
| > 90% | O=C(CN1CCN(C(=O)c2ccc(F)c(Cl)c2)CC1)N1CCN(C2CCC2)CC1 [Compound 296, 1-(3-chloro-4-fluorobenzoyl)-4-[2-(4-cyclobutylpiperazin-1-yl)-2-oxoethyl]piperazine] |
| > 90% | Cc1ccc(C(=O)N2CCN(CC(=O)N3CCN(C4CCC4)CC3)CC2)cc1Cl [Compound 298, 1-(3-chloro-4-methylbenzoyl)-4-[2-(4-cyclobutylpiperazin-1-yl)-2-oxoethyl]piperazine] |
| > 90% | O=C(CN1CCN(C(=O)c2cccc(Cl)c2)CC1)N1CCN(C2CCC2)CC1 [Compound 299, 1-(3-chlorobenzoyl)-4-[2-(4-cyclobutylpiperazin-1-yl)-2-oxoethyl]piperazine] |
| > 90% | COc1cc(Cl)ccc1C(=O)N1CCN(CC(=O)N2CCN(C3CCC3)CC2)CC1 [Compound 342, 1-(4-chloro-2-methoxybenzoyl)-4-[2-(4-cyclobutylpiperazin-1-yl)-2-oxoethyl]piperazine] |
| > 90% | Cc1cc(C(=O)N2CCN(CC(=O)N3CCN(C4CCC4)CC3)CC2)ccc1Cl [Compound 348, 1-(4-chloro-3-methylbenzoyl)-4-[2-(4-cyclobutylpiperazin-1-yl)-2-oxoethyl]piperazine] |
| > 90% | O=C(CN1CCN(C(=O)c2ccc(Cl)cc2)CC1)N1CCN(C2CCC2)CC1 [Compound 354, 1-(4-chlorobenzoyl)-4-[2-(4-cyclobutylpiperazin-1-yl)-2-oxoethyl]piperazine] |
| > 90% | COc1ccc(Cl)cc1C(=O)N1CCN(CC(=O)N2CCN(C3CCC3)CC2)CC1 [Compound 364, 1-(5-chloro-2-methoxybenzoyl)-4-[2-(4-cyclobutylpiperazin-1-yl)-2-oxoethyl]piperazine] |
| > 90% | O=C(CN1CCN(C(=O)c2ccccc2-c2ccccc2)CC1)N1CCN(C2CCC2)CC1 [Compound 374, 1-(biphenyl-2-ylcarbonyl)-4-[2-(4-cyclobutylpiperazin-1-yl)-2-oxoethyl]piperazine] |
| > 90% | O=C(CN1CCN(C(=O)c2ccc(-c3ccccc3)cc2)CC1)N1CCN(C2CCC2)CC1 [Compound 376, 1-(biphenyl-4-ylcarbonyl)-4-[2-(4-cyclobutylpiperazin-1-yl)-2-oxoethyl]piperazine] |
| > 90% | Cc1cc(C(=O)N2CCN(CC(=O)N3CCN(C4CCC4)CC3)CC2)n(C(C)(C)C)n1 [Compound 377, 1-[(1-tert-butyl-3-methyl-1H-pyrazol-5-yl)carbonyl]-4-[2-(4-cyclobutylpiperazin-1-yl)-2-oxoethyl]piperazine] |

| Molecule | inhibition at 4 µM |
| --- | --- |
| O=C(Cc1ccc2c(c1)OCO2)N1CCN(CC(=O)N2CCN(C3CCC3)CC2)CC1 [Compound 259, 1-(1,3-benzodioxol-5-ylacetyl)-4-[2-(4-cyclobutylpiperazin-1-yl)-2-oxoethyl]piperazine] | > 90% |
| CCCCOc1ccccc1C(=O)N1CCN(CC(=O)N2CCN(C3CCC3)CC2)CC1 [Compound 272, 1-(2-butoxybenzoyl)-4-[2-(4-cyclobutylpiperazin-1-yl)-2-oxoethyl]piperazine] | > 90% |
| CCCCOc1ccc(C(=O)N2CCN(CC(=O)N3CCN(C4CCC4)CC3)CC2)cc1 [Compound 340, 1-(4-butoxybenzoyl)-4-[2-(4-cyclobutylpiperazin-1-yl)-2-oxoethyl]piperazine] | > 90% |
| O=C(Cc1ccc(-c2ccccc2)cc1)N1CCN(CC(=O)N2CCN(C3CCC3)CC2)CC1 [Compound 375, 1-(biphenyl-4-ylacetyl)-4-[2-(4-cyclobutylpiperazin-1-yl)-2-oxoethyl]piperazine] | > 90% |
| O=C(Cc1ccc(F)cc1Cl)N1CCN(CC(=O)N2CCN(C3CCC3)CC2)CC1 [Compound 381, 1-[(2-chloro-4-fluorophenyl)acetyl]-4-[2-(4-cyclobutylpiperazin-1-yl)-2-oxoethyl]piperazine] | > 90% |

molecular target: T1, chimeric human H3 receptor; assay: Chimeric human H3 receptor GTP binding assay (agonist-stimulated GTP-gamma35S binding, Example 7); format: biochemical; settings: assay of Example 7; "*" in Ki of Table II; read-out: Ki
Method in brief: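 IC50 values come from non-linear regression of dose-response curves of filter-bound GTP-gamma^35S, counted by scintillation. Membranes were from infected Sf9 cells carrying receptor plus G-protein subunits, 35 μg/tube, with 10 μM GDP present.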

| Ki | Molecule |
| --- | --- |
| < 1 µM | CC(=O)c1ccc(N2C[C@@H](C)N(CC(=O)N3CCN(C4CCC4)CC3)[C@@H](C)C2)cc1 [Compound 1270, rel-1-(4-{(3R,5S)-4-[2-(4-cyclobutylpiperazin-1-yl)-2-oxoethyl]-3,5-dimethylpiperazin-1-yl}phenyl)ethanone] |
| < 1 µM | N-{1-[2-(4- cyclobutylpiperazin-1-yl)- 2-oxoethyl]piperldin-4-yl}- 2-naphthamide [Compound 1207] |
